Results on 86 compounds are retold here after a melting point compilation (Tetko et al.; mined from patent text by program, amines drawn as free bases though some values may be those of a salt).

SMILES strings stand for the structures. Where only a bound is given, the exact number is not on record here.

As to `NC(c1cc(-c2ccc(F)cc2)c(-c2ccc(F)cc2)[nH]1)(C(F)(F)F)C(F)(F)F`, the melting point (as a rule, the temperature of the solid-liquid transition) was 88 to 89 °C.

For the compound `CCc1[nH]n(C2CCCC2)c2nc(Cc3ccc(OCc4nnn[nH]4)cc3)nc(=O)c1-2`, the melting point fell in the range of 240 to 242 °C.

Turning to `CCOC(=O)c1snc(OCC)c1Br`, the melting point fell in the range of 40 to 43 °C.

In the case of `COC(=O)C=Cc1ccc(OCc2nc(-c3ccccc3)c(-c3ccccc3)o2)cc1`, the melting point was 159 to 161 °C.

The compound `CC(=O)c1cccc(Oc2ncccc2C(=O)NCC2CCC(C(C)(C)O)CC2)c1` (stereo unspecified) registered a melting point of 105 to 107 °C.

With `Cc1cnc(-c2ccc(-c3ccccc3S(=O)(=O)Nc3onc(C)c3C)cc2)o1`, the melting point lay within 90 to 100 °C.

With `O=C(NC1c2ccccc2-c2[nH]c(=O)c3nccn3c21)c1ccccc1` (stereo unspecified), the melting point amounted to 300 °C.

As to `COC1=C(OC)C(=O)C2=C(CCC(CCOc3ccc(-c4ccccc4)cc3)CC2)C1=O`, the melting point lay within 109 to 112 °C.

For the compound `C[C@@H](n1cnc2cc(Sc3ccccc3)ccc2c1=O)[C@](O)(Cn1cncn1)c1ccc(F)cc1F`, the melting point is 84 to 87 °C.

The compound `Cn1nnnc1SCCl` came in with a melting point of 55 to 57 °C.

In turn, `Cc1ccc(NC(=O)C2CC2)c(-c2nc(C(F)(F)F)cs2)c1` returned a melting point of 155 to 156 °C.

In turn, `Oc1nc2cccnc2n1Cc1ccccc1` had a melting point of 177 to 179 °C.

In the case of `CCc1cc(C(C)(C)c2ccc(C(C)(C)c3cc(CC)c(NC)c(CC)c3)cc2)cc(CC)c1NC`, the melting point is 105 to 108 °C.

Take `CCCCN(C(=S)NC)c1ccc(Cl)nc1`: the melting point was 129 to 130 °C.

For `Cc1ccc(S(=O)(=O)OCC2COc3ccc4ccccc4c3O2)cc1` (stereo unspecified), the melting point lay within 122 to 124 °C.

`CCCCOc1ccc(C(=O)Nc2ccc3ccc(Cl)nc3n2)cc1` registered a melting point of 140 °C.

Turning to `CN(C)c1ccc(/C=C/c2c(F)cccc2Cl)cc1`, the melting point was in the range of 42 to 44 °C.

On to `CCN(CC)C(=O)c1c(OC)ccc2cc(Br)ccc12`, for which the melting point is 109 to 110 °C.

Take `O=C(NC1CCCCC1)NC1CCCc2sccc21` (stereo unspecified): the melting point is 222 to 225 °C.

In the case of `Cc1ccc(O)c(CNc2nc(NC[C@@H](C)O)nc3c2ncn3C(C)C)c1`, the melting point was in the range of 160 to 161 °C.

In turn, `C=C(C)COc1ccc(C(=O)C=Cc2cccs2)c(O)c1` gave a melting point of 119 to 120 °C.

For `CC(C)(C)OC(=O)N[C@H](CO)C(=O)OC(c1ccccc1)c1ccccc1`, the melting point lay within 116 to 117 °C.

`Cc1nnc2n1-c1ccc(C#CCn3ccc4ccccc43)cc1C(c1ccccc1F)=NC2`: the melting point was in the range of 167 to 169 °C.

Compound `COc1ncc(Cl)cc1C(O)C=Cc1ccc(Cl)cc1` (stereo unspecified) had a melting point of 135 to 140 °C.

For `CC(C)(NC(=O)OCc1ccccc1)C(=O)Nc1ccc([N+](=O)[O-])cc1C(=O)c1ccccc1F`, the melting point lay within 153 to 155 °C.

In the case of `CCOC(=O)c1cnc2c(-c3ccc(Cc4cccc(OC)c4)cc3)cnn2c1O`, the melting point lay within 236 to 240 °C.

Regarding `CCOC(=O)c1sc(Oc2ccc(-n3cccc3)cc2)c2c1CCc1cnn(C)c1-2`, the melting point fell in the range of 139 to 140 °C.

`CC(C)S(=O)(=O)c1ccccc1Nc1nc(Nc2ccc3c(c2)C(C)(C)CCC(=O)N3C)ncc1Cl` had a melting point of 195 to 197 °C.

On to `COc1nc2nc(S(=O)(=O)Cl)nn2cc1C`, for which the melting point lay in the range of 154 to 157 °C.

In the case of `Nc1cccc(-c2ccc(CCN3C4CCC3CC(N)C4)cc2)n1` (stereo unspecified), the melting point was above 300 °C.

Compound `N#Cc1[nH]c(Br)c(C#N)c1Br` returned a melting point of 227 to 232 °C.

Turning to `O=CC1CCN1C(c1ccccc1)c1ccccc1` (stereo unspecified), the melting point lay within 85 to 86 °C.

`CCOC(=O)c1cc2c(C)ccc(NS(=O)(=O)c3cccs3)c2[nH]1` returned a melting point of 180 to 181 °C.

In turn, `Cc1ccc(NC(=O)c2ccc(C(=O)Nc3ccccc3N)s2)cc1Nc1nccc(-c2cccnc2)n1` came in with a melting point of 280 °C.

Compound `CC(C)[C@H](NC(=O)OCc1csc(N(C)C)n1)C(=O)N[C@@H](Cc1ccccc1)C[C@H](O)[C@H](Cc1ccccc1)NC(=O)OCc1cncs1` registered a melting point of 162 to 165 °C.

In turn, `CCCCn1c(=O)[nH]c2c(Cl)cc(OC)c(OC)c2c1=N` registered a melting point of 155 to 157 °C.

As to `Cc1csc(NC(=O)c2nc(C)cc(C#N)c2C)n1`, the melting point is 200 °C.

`CCOC(=O)C(=NOC)c1ccccc1CBr` displayed a melting point of 80 to 81 °C.

Compound `O=C(O)C1=CS[C@@H]2/C(=C\c3ccc4nc5n(c4c3)CCS5)C(=O)N12` had a melting point above 250 °C.

For `Oc1cc(-c2c3ccccc3c(Br)c3sc4ccccc4c23)ccc1Br`, the melting point fell in the range of 111 to 112 °C.

For the compound `COc1cc(C=CC=O)ccc1OCc1csc(-c2ccccc2)n1`, the melting point lay within 115 to 116 °C.

`COc1ccc(CCNC=C2C(=O)Nc3cc(OC)c(OC)cc32)cc1OC`: the melting point lay in the range of 164 to 166 °C.

`CC1(C)C(=O)N(c2ccc(C#N)c(C(F)(F)F)c2)C(=O)N1CCCCO[N+](=O)[O-]` came in with a melting point of 74 to 75 °C.

In turn, `O=C1OC2(C=Cc3ccccc3O2)c2ccccc21` (stereo unspecified) gave a melting point of 113 to 114 °C.

Turning to `CC(=Cc1ccc(C(=O)O)cc1)c1ccc2c(c1)OCCC2(C)C`, the melting point is 242 to 244 °C.

Compound `COc1cccc2c(CCCNC3COc4c(F)ccc(C(N)=O)c4C3)c[nH]c12` (stereo unspecified) showed a melting point of 196 to 198 °C.

`CCOC(=O)c1c(C=O)c2ccc3sc4ccccc4c3c2n1C`: the melting point was 145 to 147 °C.

`CC(c1c[nH]c([N+](=O)[O-])n1)N1CCCCC1` (stereo unspecified) yielded a melting point of 61 to 62 °C.

`O=S(c1ccc(/C=C/c2nc(CNc3ccc(CCCCn4ccnn4)cc3)co2)cc1)C(F)(F)F` (stereo unspecified): the melting point is 121 to 124 °C.

As to `COc1c(C)c(N2CCN(c3ccc(F)cc3)CC2)c(C)c2c1OC(C)C2` (stereo unspecified), the melting point was in the range of 114 to 116 °C.

The compound `CCCCNC(=S)NC(Cc1ccccc1)C(=O)Nc1c(C(C)C)cccc1C(C)C` (stereo unspecified) showed a melting point of 214 to 215 °C.

Compound `Cc1nn(-c2c(Cl)cc(C(F)(F)F)cc2Cl)nc1C(=O)Nc1ccccc1` registered a melting point of 185 to 186 °C.

With `COc1ccc2nc(NC(=O)COC(=O)c3ccccc3)sc2c1`, the melting point lay within 203 to 204 °C.

In turn, `O=P(O)(O)Cc1ccccc1CP(=O)(O)O` showed a melting point above 300 °C.

`CCC(=O)N(C)Cc1cccc2c1C(=O)N(C1CCC(=O)NC1=O)C2=O` (stereo unspecified): the melting point fell in the range of 206 to 208 °C.

In the case of `O=C(CNC(=O)OCc1ccccc1)OCc1ccccc1`, the melting point is 72 °C.

For `CN(CCOc1ccc(OC(F)(F)F)cc1)C1CCN(c2ccc(OC[C@@]3(C)Cn4cc([N+](=O)[O-])nc4O3)cc2)CC1`, the melting point fell in the range of 186 to 188 °C.

Take `CC(C)n1nc(C#Cc2ccccc2F)ccc1=O`: the melting point was 84.5 to 86 °C.

The compound `COc1cccc([C@H]2O[C@H](CC(=O)Nc3ccc4oc(C(=O)O)c(OC(C)C)c4c3)C(=O)N(CC(C)(C)CO)c3ccc(Cl)cc32)c1OC` registered a melting point of 174 to 175 °C.

For `COc1ccc2[nH]c3c(C)cnc(Cl)c3c2c1`, the melting point fell in the range of 243 to 245 °C.

Consider `CN(C(CCn1c(=O)cc(C(F)(F)F)[nH]c1=O)C(=O)NO)S(=O)(=O)c1ccc(Oc2cccc(F)c2)cc1` (stereo unspecified), for which the melting point lay within 168 to 169 °C.

On to `Cn1ccnc1S[Si](C)(C)C`, for which the melting point is 49 to 52 °C.

Regarding `COc1ccccc1C1(CC(=O)N2CCN(c3ccncc3)CC2)C(=O)Nc2ccc(Cl)cc21` (stereo unspecified), the melting point was 111 °C.

Regarding `O=c1[nH]c2cc(Cl)ccc2n1-c1cc(Cl)ccc1O`, the melting point was in the range of 256 to 257 °C.

Turning to `Oc1ccc(F)cc1-c1cc(-c2ccc(-c3ccccc3)cc2)cc(-c2ccc3ccccc3c2)n1`, the melting point lay within 187 to 188 °C.

`Cc1ccc(S(=O)(=S)OCc2ccccc2)cc1` (stereo unspecified) registered a melting point of 52 to 56.5 °C.

In turn, `Nc1nc(O)c2c(n1)NCC(CCc1ccc(C(=O)N[C@@H](CCC(=O)O)C(=O)O)s1)C2` (stereo partly specified) returned a melting point of 204 to 230 °C.

For `CC(=O)C(C)(C)C(C=C(Cl)C(F)(F)F)OS(C)(=O)=O` (stereo unspecified), the melting point was 50 to 52 °C.

`OCc1ccc2cccc(Br)c2c1` yielded a melting point of 110 to 111 °C.

`O=C(NCCc1c[nH]c2ccccc12)OCC1CC1`: the melting point is 88 to 90 °C.

With `CC(=O)OC1CC2(C)C(CCC2(Sc2ccccc2)Sc2ccccc2)C2CCC3=CC(=O)C=CC3(C)C12F` (stereo unspecified), the melting point lay in the range of 180 to 184 °C.

Turning to `CC[C@H](C)[C@H](NC(=O)[C@H](C)N(C(=O)OC(C)(C)C)C1CCCCC1)C(=O)N[C@@H](Cc1ccc(C(C)(C)C)cc1)[C@@H](O)[C@@H](O)CC(C)C`, the melting point lay within 171 to 172 °C.

For `COc1ccc(-c2[nH]c(-c3ccncc3)c(C)c2C(C)=O)cc1`, the melting point lay in the range of 185 to 186 °C.

For `CCCCCCCCCCC1CCCC1C(=O)Nc1cccc2ncccc12` (stereo unspecified), the melting point came out at 75 °C.

Compound `CCCn1c(=O)c2c(C(=O)OCCN(C)C)ncn2c2ccccc21` gave a melting point of 115 to 118 °C.

In turn, `COc1ccc2[nH]c(SCc3ncnc(N4CCCC4)c3C)nc2c1` showed a melting point of 104 to 106 °C.

Turning to `COc1cc(NC(=O)c2csc(NC(=O)NCc3ccccc3)n2)ccc1OCC(=O)O`, the melting point is 210 °C.

As for `O=C(O)c1ccc(NCc2ccc(Cl)cc2)cc1`, the melting point lay in the range of 206 to 208 °C.

In turn, `Cc1[nH]c(=O)oc1C(=O)c1ccc(-n2ccnc2)cc1` showed a melting point of 320 °C.

As for `CC(=O)Nc1ccc(C(C)=C(Cl)Cl)cc1[N+](=O)[O-]`, the melting point lay within 139 to 141 °C.

For `Cn1ccc2cc(NC(=O)Nc3cccc4cccnc34)ccc21`, the melting point is 205 to 209 °C.

Regarding `CC(C)c1nn(-c2ccc(C(F)(F)F)cn2)cc1CCCOc1nn(C2CCCCC2)cc1CC(=O)O`, the melting point was in the range of 116 to 117 °C.

In turn, `O=C(NCc1ccccc1)c1ccnc(-n2cnn(CC3CC3)c2=O)c1` showed a melting point of 137 to 139 °C.

The compound `CCOC(=O)c1ccc(CN2CCN(C(=O)OC(C)(C)C)C(C(N)=O)C2)c(C(F)(F)F)c1` (stereo unspecified) returned a melting point of 124 to 125 °C.

In turn, `CCN1CCc2nc(N3CCN(Cc4ccccc4)CC3)ncc2C1=O` showed a melting point of 128 to 130 °C.

In the case of `FC(F)(F)c1cc(CO[C@@H]2CCCN(Cc3nnn[nH]3)[C@@H]2c2ccccc2)cc(C(F)(F)F)c1` (relative stereo), the melting point was in the range of 114 to 115 °C.
